Source: patent publication US20240246942A1, “KINASE INHIBITORS FOR THE TREATMENT OF NEURODEGENERATIVE DISEASES” (priority 2020, published 2024)
Where two headings read alike, the source gives them in different places.

Experiments:
[1] = target: T1, panel of 374 wild-type kinases (Homo sapiens, UniProt Q9Y572); test: biochemical; conditions: read-out: % Enzyme Activity (relative to DMSO controls), kinase RIPK3; 5 uM
T1 construct: purchased Reaction Biology Corporation

[2] = target: T2, panel of 374 wild-type kinases (Homo sapiens, UniProt P30291); test: biochemical; conditions: read-out: % Enzyme Activity (relative to DMSO controls), kinase WEE1; 5 uM
T2 construct: purchased Reaction Biology Corporation
T2 sequence (P30291 whole entry): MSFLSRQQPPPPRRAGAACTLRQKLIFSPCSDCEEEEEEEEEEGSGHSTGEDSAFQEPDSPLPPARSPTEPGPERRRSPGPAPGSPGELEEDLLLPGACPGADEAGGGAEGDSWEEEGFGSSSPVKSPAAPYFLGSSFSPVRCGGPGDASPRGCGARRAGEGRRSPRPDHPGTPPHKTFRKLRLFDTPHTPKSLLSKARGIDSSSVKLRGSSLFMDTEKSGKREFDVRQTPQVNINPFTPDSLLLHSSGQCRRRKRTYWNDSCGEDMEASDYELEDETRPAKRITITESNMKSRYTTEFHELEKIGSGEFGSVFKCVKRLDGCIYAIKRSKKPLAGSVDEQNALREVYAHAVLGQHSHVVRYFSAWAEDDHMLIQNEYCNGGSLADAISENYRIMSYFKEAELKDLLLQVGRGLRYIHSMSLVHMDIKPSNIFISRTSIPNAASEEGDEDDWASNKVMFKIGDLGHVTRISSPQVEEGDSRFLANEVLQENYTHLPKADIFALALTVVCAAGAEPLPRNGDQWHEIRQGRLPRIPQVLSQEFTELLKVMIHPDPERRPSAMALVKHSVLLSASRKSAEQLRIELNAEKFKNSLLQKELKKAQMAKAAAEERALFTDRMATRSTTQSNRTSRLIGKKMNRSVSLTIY

[3] = target: T3, panel of 374 wild-type kinases (Homo sapiens, UniProt Q05655); test: biochemical; conditions: read-out: % Enzyme Activity (relative to DMSO controls), kinase PKCd
T3 construct: purchased Reaction Biology Corporation
T3 sequence (Q05655 whole entry): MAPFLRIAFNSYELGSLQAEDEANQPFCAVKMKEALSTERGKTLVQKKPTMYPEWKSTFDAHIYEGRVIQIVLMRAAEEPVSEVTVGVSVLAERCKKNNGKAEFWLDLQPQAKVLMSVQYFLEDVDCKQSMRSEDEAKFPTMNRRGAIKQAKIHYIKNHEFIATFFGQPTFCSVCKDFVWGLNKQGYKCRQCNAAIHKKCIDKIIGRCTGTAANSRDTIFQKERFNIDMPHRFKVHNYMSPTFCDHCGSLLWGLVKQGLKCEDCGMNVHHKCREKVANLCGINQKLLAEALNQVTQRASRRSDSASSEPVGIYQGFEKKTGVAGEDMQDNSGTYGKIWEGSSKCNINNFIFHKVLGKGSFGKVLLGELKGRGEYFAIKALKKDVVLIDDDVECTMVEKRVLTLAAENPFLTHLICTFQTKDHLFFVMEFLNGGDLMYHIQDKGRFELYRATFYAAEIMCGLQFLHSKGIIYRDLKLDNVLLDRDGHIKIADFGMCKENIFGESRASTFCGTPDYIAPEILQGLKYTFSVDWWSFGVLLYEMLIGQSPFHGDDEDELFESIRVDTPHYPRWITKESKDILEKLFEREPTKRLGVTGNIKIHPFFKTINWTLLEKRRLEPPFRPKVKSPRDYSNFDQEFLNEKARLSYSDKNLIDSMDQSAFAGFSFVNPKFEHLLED

[4] = target: T4, panel of 374 wild-type kinases (Homo sapiens, UniProt Q12852); test: biochemical; conditions: read-out: % Enzyme Activity (relative to DMSO controls), DLK/MAP3K12; 5 uM
T4 construct: purchased Reaction Biology Corporation

[5] = target: T5, panel of 374 wild-type kinases (Homo sapiens, UniProt Q02156); test: biochemical; conditions: read-out: % Enzyme Activity (relative to DMSO controls), kinase PKCepsilon; 5 uM
T5 construct: purchased Reaction Biology Corporation

[6] = target: T6, panel of 374 wild-type kinases (Homo sapiens, UniProt Q99640); test: biochemical; conditions: read-out: % Enzyme Activity (relative to DMSO controls), kinase PKMYT1; 5 uM
T6 construct: purchased Reaction Biology Corporation
T6 sequence (Q99640 whole entry): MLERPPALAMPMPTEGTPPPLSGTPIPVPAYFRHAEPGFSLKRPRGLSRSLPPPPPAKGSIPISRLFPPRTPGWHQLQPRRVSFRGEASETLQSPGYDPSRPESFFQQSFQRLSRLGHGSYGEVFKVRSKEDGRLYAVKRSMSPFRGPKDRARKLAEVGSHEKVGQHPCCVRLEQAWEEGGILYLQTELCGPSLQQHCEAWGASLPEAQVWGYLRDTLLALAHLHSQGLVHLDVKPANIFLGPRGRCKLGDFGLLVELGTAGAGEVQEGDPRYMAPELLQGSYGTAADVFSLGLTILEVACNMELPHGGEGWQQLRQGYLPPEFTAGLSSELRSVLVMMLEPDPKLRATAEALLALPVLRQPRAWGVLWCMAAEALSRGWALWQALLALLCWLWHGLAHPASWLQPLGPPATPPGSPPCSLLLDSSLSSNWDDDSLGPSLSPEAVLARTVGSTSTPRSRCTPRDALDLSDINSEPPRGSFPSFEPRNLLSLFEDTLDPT

[7] = target: T7, panel of 374 wild-type kinases (Homo sapiens, UniProt Q00534); test: biochemical; conditions: 5 uM
T7 construct: purchased Reaction Biology Corporation
T7 sequence (Q00534 whole entry): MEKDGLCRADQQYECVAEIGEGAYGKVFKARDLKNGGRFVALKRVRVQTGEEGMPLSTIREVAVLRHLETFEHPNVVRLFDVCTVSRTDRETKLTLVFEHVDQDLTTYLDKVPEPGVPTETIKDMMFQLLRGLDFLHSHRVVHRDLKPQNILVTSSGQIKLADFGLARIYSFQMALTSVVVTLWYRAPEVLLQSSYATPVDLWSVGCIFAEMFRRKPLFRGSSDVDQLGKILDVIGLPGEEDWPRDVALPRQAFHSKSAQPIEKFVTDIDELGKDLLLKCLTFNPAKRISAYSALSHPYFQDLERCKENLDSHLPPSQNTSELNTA

[8] = target: T8, panel of 374 wild-type kinases (Homo sapiens, UniProt O14578); test: biochemical; conditions: read-out: % Enzyme Activity (relative to DMSO controls), kinase STK21/CIT
T8 construct: purchased Reaction Biology Corporation
T8 sequence (O14578 whole entry): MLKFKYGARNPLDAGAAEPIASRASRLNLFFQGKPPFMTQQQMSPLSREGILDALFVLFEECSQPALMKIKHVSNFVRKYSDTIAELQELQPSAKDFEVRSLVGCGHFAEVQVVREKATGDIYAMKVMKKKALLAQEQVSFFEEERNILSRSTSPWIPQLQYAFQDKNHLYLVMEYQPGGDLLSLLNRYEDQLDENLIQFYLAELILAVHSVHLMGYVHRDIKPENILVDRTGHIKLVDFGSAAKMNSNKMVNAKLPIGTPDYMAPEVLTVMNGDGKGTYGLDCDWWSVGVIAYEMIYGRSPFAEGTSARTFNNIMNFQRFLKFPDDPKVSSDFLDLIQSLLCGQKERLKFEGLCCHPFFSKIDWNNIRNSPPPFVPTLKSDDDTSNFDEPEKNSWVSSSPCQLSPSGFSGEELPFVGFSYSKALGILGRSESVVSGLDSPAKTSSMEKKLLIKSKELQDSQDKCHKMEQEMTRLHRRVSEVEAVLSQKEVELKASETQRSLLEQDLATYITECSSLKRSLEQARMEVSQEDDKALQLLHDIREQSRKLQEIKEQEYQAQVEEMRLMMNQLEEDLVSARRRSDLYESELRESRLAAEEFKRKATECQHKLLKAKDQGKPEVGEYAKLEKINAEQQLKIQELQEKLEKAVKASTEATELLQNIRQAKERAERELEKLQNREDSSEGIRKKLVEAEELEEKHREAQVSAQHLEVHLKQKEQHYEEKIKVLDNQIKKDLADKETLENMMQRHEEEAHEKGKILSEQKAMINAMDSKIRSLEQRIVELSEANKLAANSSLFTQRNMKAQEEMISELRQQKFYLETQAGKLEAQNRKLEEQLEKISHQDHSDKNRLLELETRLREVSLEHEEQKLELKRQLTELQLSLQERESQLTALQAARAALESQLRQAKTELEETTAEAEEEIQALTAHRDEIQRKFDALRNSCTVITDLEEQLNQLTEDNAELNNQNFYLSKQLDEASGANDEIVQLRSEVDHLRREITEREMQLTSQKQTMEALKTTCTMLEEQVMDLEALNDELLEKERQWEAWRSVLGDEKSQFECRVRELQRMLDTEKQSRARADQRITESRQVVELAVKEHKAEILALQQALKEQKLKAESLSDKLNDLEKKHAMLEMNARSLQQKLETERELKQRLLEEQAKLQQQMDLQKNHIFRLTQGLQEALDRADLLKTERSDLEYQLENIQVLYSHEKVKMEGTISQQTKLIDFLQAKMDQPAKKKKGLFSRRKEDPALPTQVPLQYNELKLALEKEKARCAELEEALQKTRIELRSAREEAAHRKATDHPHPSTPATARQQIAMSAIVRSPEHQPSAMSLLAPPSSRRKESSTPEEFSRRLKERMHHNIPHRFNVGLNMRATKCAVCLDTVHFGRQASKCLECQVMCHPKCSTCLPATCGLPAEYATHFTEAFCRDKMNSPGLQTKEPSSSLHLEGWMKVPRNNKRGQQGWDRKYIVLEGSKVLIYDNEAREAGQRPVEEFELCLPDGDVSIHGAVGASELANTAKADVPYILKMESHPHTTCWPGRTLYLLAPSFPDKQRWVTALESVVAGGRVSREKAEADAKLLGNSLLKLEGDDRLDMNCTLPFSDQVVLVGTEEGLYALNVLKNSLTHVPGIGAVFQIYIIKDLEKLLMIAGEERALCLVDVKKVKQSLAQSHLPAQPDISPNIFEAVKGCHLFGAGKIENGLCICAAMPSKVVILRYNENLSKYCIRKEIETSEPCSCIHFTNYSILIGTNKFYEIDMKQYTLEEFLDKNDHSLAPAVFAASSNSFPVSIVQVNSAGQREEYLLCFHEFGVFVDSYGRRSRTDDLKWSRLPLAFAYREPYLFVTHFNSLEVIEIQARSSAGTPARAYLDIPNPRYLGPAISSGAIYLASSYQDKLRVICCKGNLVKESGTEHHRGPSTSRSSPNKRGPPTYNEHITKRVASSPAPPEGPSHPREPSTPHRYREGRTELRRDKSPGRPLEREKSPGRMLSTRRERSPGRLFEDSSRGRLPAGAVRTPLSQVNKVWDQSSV

[9] = target: T9, panel of 374 wild-type kinases (Homo sapiens, UniProt Q56UN5); test: biochemical; conditions: read-out: % Enzyme Activity (relative to DMSO controls), kinase YSK4/MAP3K19
T9 construct: purchased Reaction Biology Corporation

[10] = target: T10, panel of 374 wild-type kinases (Homo sapiens, UniProt P42679); test: biochemical; conditions: read-out: % Enzyme Activity (relative to DMSO controls), CTK/MATK
T10 construct: purchased Reaction Biology Corporation
T10 sequence (P42679 1-507): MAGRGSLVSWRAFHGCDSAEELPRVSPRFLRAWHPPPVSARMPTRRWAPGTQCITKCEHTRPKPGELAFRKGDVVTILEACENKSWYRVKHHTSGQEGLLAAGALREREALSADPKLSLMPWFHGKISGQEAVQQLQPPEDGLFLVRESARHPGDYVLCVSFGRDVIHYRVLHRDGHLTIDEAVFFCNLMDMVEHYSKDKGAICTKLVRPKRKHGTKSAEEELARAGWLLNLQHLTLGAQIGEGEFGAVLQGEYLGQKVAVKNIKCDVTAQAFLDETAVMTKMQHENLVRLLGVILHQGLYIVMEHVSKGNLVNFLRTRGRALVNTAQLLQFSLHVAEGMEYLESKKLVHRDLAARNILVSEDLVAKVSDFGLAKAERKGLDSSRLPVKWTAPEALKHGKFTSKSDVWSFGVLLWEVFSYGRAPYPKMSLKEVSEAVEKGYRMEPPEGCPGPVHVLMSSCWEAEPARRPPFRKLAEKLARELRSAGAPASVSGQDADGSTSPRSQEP

[11] = target: T11, panel of 374 wild-type kinases (Homo sapiens, UniProt Q8IY84); test: biochemical; conditions: read-out: % Enzyme Activity (relative to DMSO controls), NIM1; 5 uM
T11 construct: purchased Reaction Biology Corporation
T11 sequence (Q8IY84 whole entry): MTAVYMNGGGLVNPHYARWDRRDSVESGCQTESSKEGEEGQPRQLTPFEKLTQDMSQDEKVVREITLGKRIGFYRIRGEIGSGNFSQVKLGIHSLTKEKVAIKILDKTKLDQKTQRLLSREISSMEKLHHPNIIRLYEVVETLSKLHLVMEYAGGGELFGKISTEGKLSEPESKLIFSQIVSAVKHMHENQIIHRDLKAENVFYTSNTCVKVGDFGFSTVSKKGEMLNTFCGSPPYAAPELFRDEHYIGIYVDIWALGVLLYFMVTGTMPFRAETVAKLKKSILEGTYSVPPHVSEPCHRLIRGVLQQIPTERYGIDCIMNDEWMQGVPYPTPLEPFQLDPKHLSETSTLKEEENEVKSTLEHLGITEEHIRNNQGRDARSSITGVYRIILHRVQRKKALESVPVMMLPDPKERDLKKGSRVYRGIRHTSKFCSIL

JNK3α1 = JNK3α1 (Homo sapiens, UniProt P53779); assay type: biochemical; conditions: mean of ≥2 experiments; read-out: Biochemical inhibition IC50 JNK3
Procedure: (§1) A 10-point titration of all compounds was carried out in 3-fold dilutions from 10 μM to 0.5 nM.

JNK2 = JNK2 (Homo sapiens, UniProt P45984); test: JNK2 homogeneous time-resolved fluorescence enzyme inhibition assay; assay type: biochemical; conditions: mean of ≥2 experiments; read-out: Biochemical inhibition IC50 JNK2
Procedure: as §1

[12] = target: T12, panel of 374 wild-type kinases (Homo sapiens, UniProt O43293); test: biochemical; conditions: read-out: % Enzyme Activity (relative to DMSO controls), kinase ZIPK/DAPK3
T12 construct: purchased Reaction Biology Corporation
T12 sequence (O43293 whole entry): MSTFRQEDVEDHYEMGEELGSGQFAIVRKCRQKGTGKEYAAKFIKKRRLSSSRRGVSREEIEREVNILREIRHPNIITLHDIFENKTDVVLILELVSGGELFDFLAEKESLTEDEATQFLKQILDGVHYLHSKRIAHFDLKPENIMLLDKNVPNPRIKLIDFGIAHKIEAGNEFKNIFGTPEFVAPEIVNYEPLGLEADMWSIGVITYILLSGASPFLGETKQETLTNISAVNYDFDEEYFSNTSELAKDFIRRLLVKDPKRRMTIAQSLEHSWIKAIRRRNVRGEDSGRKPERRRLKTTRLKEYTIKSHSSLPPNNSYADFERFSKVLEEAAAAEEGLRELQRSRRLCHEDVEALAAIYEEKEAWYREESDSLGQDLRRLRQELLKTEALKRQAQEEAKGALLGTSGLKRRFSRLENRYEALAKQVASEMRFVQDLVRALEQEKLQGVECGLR

[13] = target: T13, panel of 374 wild-type kinases (Homo sapiens, UniProt P68400); test: biochemical; conditions: CK2a, read-out: % Enzyme Activity (relative to DMSO controls)
T13 construct: purchased Reaction Biology Corporation

[14] = target: T14, panel of 374 wild-type kinases (Homo sapiens, UniProt O15111); test: biochemical; conditions: read-out: % Enzyme Activity (relative to DMSO controls), IKKa/CHUK
T14 construct: purchased Reaction Biology Corporation

[15] = target: T15, panel of 374 wild-type kinases (Homo sapiens, UniProt O60307); test: biochemical; conditions: read-out: % Enzyme Activity (relative to DMSO controls), MAST3
T15 construct: purchased Reaction Biology Corporation

[16] = read-out: % Enzyme Activity (relative to DMSO controls), CDK6/cyclin D1
[17] = read-out: % Enzyme Activity (relative to DMSO controls), CDK6/cyclin D3

`O=C(Nc1cnn(-c2csc(C(=O)NC3COC3)c2)c1)Nc1ccccc1Cl` [Compound 17, 4-(4-(3-(2-chlorophenyl)ureido)-1H-pyrazol-1-yl)-N-(oxetan-3-yl)thiophene-2-carboxamide] was tested, and the remaining activity at 5 µM [1] was 101%, the remaining activity at 5 µM [2] was 124% and the remaining activity at 5 µM [3] was 112%. The remaining activity at 5 µM [4] was 96.5%, the remaining activity at 5 µM [5] was 102% and the remaining activity at 5 µM [6] was 87%. For the same molecule, the remaining activity at 5 µM [7, 16] was 95.4%, the remaining activity at 5 µM [7, 17] was 114% and the remaining activity at 5 µM ([8]; 5 uM) was 90.1%. The remaining activity at 5 µM ([9]; 5 uM) was 105%, the remaining activity at 5 µM [10] was 99.7% and the remaining activity at 5 µM [11] was 101%. It also gave an IC50 (JNK3α1) of 0.035 µM and an IC50 (JNK2) of 1.36 µM.

`O=C(Nc1cnn(-c2csc(C(=O)NC3COC3)c2)c1)Nc1c(F)cccc1Cl` [Compound 25, 4-(4-(3-(2-chloro-6-fluorophenyl)ureido)-1H-pyrazol-1-yl)-N-(oxetan-3-yl)thiophene-2-carboxamide] showed a remaining activity at 5 µM [1] of 97.5%, a remaining activity at 5 µM [2] of 85.2% and a remaining activity at 5 µM ([12]; 5 uM) of 108%. It also gave a remaining activity at 5 µM ([13]; 5 uM) of 90.5%, a remaining activity at 5 µM [3] of 101% and a remaining activity at 5 µM [4] of 82.2%. For the same molecule, the remaining activity at 5 µM [5] was 94.2%, the remaining activity at 5 µM [6] was 89.6% and the remaining activity at 5 µM [7, 16] was 105%. For the same molecule, the remaining activity at 5 µM [7, 17] was 92.6%, the remaining activity at 5 µM ([14]; 5 uM) was 108% and the remaining activity at 5 µM [10] was 100%. It also gave a remaining activity at 5 µM ([15]; 5 uM) of 108% and a remaining activity at 5 µM [11] of 70.7%.

For `Cc1sc(C(=O)NC2COC2)cc1-n1cc(NC(=O)Nc2c(F)cccc2Cl)cn1` [Compound 27, 4-(4-(3-(2-chloro-6-fluorophenyl)ureido)-1H-pyrazol-1-yl)-5-methyl-N-(oxetan-3-yl)thiophene-2-carboxamide], the remaining activity at 10 µM ([12]; 10 uM) was 101%, the remaining activity at 10 µM ([13]; 10 uM) was 97% and the remaining activity at 10 µM ([3]; 10 uM) was 98%. It also gave a remaining activity at 10 µM ([8]; 10 uM) of 98.8%, a remaining activity at 10 µM ([9]; 10 uM) of 95.5% and a remaining activity at 10 µM ([14]; 10 uM) of 101%. The remaining activity at 10 µM ([10]; 10 uM) was 97.8% and the remaining activity at 10 µM ([15]; 10 uM) was 96.7%.
